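48-hour exposure; five concentrations; linearly interpolated endpoints. TGI denotes the concentration required for complete inhibition of growth.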
What was measured:
Experiment in all cases: growth of human tumour cells (NCI), 48 h
[1] = test system: NCI-H23 lung
[2] = test system: OVCAR-5 ovarian
[3] = test system: U251 CNS
[4] = test system: COLO 205 colon
[5] = test system: BT-549 breast
[6] = test system: SR leukemia
[7] = test system: RPMI-8226 leukemia
[8] = test system: RXF 393 renal
[9] = test system: SN12C renal
[10] = test system: MALME-3M melanoma
[11] = test system: EKVX NSCLC
[12] = test system: DU-145 prostate

CC(=O)O[C@H]1/C(=C/c2ccncc2)C[C@H]2[C@@H]3CC=C4C[C@@H](N5CCCC5)CC[C@]4(C)[C@H]3CC[C@]12C
TGI [1]: 30.7 µM | TGI [2]: 27.2 µM | TGI [3]: 24.8 µM | TGI [4]: 25.5 µM | TGI [5]: 35.8 µM | TGI [6]: 21.6 µM | TGI [7]: 23.4 µM | TGI [8]: 20.4 µM | TGI [9]: 30.8 µM | TGI [10]: 28 µM | TGI [11]: 29 µM | TGI [12]: 28 µM

CN(C)CCN=C1Nc2ccccc2C(=S)N2CSCC12 (stereo not given)
TGI [2]: > 100 µM | TGI [3]: > 100 µM | TGI [4]: > 100 µM | TGI [5]: > 100 µM | TGI [6]: > 100 µM | TGI [7]: > 100 µM | TGI [8]: > 100 µM | TGI [9]: > 100 µM | TGI [10]: > 100 µM | TGI [11]: > 100 µM | TGI [12]: > 100 µM

CC(=O)NC(CCC(=O)C=[N+]=N)C(=O)O (stereo not given)
TGI [1]: > 100 µM | TGI [2]: > 100 µM | TGI [3]: > 100 µM | TGI [4]: > 100 µM | TGI [5]: > 100 µM | TGI [6]: > 100 µM | TGI [7]: > 100 µM | TGI [8]: > 100 µM | TGI [9]: > 100 µM | TGI [10]: > 100 µM | TGI [11]: > 100 µM | TGI [12]: > 100 µM

CNC(=O)N(CCC#N)CCCN(C(=O)NC)c1ccccc1
TGI [1]: > 100 µM | TGI [2]: > 100 µM | TGI [3]: > 100 µM | TGI [4]: > 100 µM | TGI [5]: > 100 µM | TGI [6]: > 100 µM | TGI [7]: > 100 µM | TGI [8]: > 100 µM | TGI [9]: > 100 µM | TGI [10]: > 100 µM | TGI [11]: > 100 µM | TGI [12]: > 100 µM

c1ccc(CNCCCCNCCCNCc2ccccc2)cc1
TGI [1]: 47.4 µM | TGI [2]: > 100 µM | TGI [3]: 35.7 µM | TGI [4]: 27.6 µM | TGI [5]: 33.6 µM | TGI [6]: 56.1 µM | TGI [7]: > 100 µM | TGI [8]: 32.7 µM | TGI [9]: 36.4 µM | TGI [10]: 30.2 µM | TGI [11]: 57.3 µM | TGI [12]: 49.3 µM

CC(C)NC(=O)OCc1c(COC(=O)NC(C)C)c(-c2cc[n+](COC(=O)C(C)(C)C)cc2)n2c1CCC2
TGI [1]: > 100 µM | TGI [2]: > 100 µM | TGI [3]: > 100 µM | TGI [4]: > 100 µM | TGI [5]: > 100 µM | TGI [6]: > 100 µM | TGI [7]: > 100 µM | TGI [8]: > 100 µM | TGI [9]: > 100 µM | TGI [10]: > 100 µM | TGI [11]: > 100 µM | TGI [12]: > 100 µM

Cc1ccc(Nc2c(C#N)[n+]([O-])c3cc(Cl)ccc3[n+]2[O-])cc1
TGI [1]: > 100 µM | TGI [2]: > 100 µM | TGI [3]: > 100 µM | TGI [4]: > 100 µM | TGI [5]: > 100 µM | TGI [6]: > 36.3 µM | TGI [7]: > 100 µM | TGI [8]: > 100 µM | TGI [9]: > 100 µM | TGI [10]: > 100 µM | TGI [11]: > 100 µM | TGI [12]: > 100 µM

Cc1oc2c(Cl)cc(O)c(Cl)c2c2cccc1-2
TGI [1]: 44.1 µM | TGI [2]: > 100 µM | TGI [3]: 64.9 µM | TGI [4]: > 100 µM | TGI [5]: 74.2 µM | TGI [6]: 77 µM | TGI [7]: 36.6 µM | TGI [9]: 80.7 µM | TGI [10]: 53.1 µM | TGI [11]: 54.6 µM | TGI [12]: 27.5 µM

C=C(C)[C@@]1(OC(=O)c2cc([N+](=O)[O-])cc([N+](=O)[O-])c2)C[C@@H]2CCCC[C@@H]21
TGI [1]: > 100 µM | TGI [2]: > 100 µM | TGI [3]: > 100 µM | TGI [4]: > 100 µM | TGI [5]: > 100 µM | TGI [6]: > 100 µM | TGI [7]: > 100 µM | TGI [9]: > 100 µM | TGI [10]: > 100 µM | TGI [11]: > 100 µM | TGI [12]: > 100 µM
